From paper PMC9250511, “Metabolomics-guided discovery of cytochrome P450s involved in pseudotropine-dependent biosynthesis of modified tropane alkaloids” (Nature Communications, 2022)

Tests used:
AbP450-5021 = biological target: T1, AbP450-5021 (Atropa belladonna, UniProt A0A3G4RHX1); test: transient expression in N. benthamiana leaves, UHPLC/HRMS of products; type: cell-based; details: 1 mM substrate hydrochloride infiltrated in leaf, 2 days
T1 construct: full-length ORF in pEAQ-HT-DEST1, transiently produced in Nicotiana benthamiana leaves
T1 sequence (A0A3G4RHX1 entry or part of it): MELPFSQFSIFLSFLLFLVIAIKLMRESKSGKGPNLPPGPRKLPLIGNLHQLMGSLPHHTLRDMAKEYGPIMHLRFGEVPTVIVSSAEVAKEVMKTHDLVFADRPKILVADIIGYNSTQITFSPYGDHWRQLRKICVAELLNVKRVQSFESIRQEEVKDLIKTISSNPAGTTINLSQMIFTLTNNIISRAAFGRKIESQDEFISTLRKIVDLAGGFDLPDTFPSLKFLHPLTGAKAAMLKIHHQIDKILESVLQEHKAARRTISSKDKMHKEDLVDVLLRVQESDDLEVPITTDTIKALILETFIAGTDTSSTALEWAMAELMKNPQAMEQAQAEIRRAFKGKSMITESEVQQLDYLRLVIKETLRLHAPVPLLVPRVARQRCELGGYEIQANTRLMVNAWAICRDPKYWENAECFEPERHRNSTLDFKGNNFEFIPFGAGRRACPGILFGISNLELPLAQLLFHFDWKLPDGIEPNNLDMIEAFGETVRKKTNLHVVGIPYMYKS

AbP450-116623 = biological target: T2, AbP450-116623 (Atropa belladonna, UniProt A0A3G4RHW9); test: as above; type: cell-based; details: 1 mM substrate hydrochloride infiltrated in leaf, 2 days; ring-hydroxylation at carbon adjacent to ring nitrogen (isomer 1)
T2 construct: full-length ORF in pEAQ-HT-DEST1, transiently produced in Nicotiana benthamiana leaves
T2 sequence (A0A3G4RHW9 entry or part of it): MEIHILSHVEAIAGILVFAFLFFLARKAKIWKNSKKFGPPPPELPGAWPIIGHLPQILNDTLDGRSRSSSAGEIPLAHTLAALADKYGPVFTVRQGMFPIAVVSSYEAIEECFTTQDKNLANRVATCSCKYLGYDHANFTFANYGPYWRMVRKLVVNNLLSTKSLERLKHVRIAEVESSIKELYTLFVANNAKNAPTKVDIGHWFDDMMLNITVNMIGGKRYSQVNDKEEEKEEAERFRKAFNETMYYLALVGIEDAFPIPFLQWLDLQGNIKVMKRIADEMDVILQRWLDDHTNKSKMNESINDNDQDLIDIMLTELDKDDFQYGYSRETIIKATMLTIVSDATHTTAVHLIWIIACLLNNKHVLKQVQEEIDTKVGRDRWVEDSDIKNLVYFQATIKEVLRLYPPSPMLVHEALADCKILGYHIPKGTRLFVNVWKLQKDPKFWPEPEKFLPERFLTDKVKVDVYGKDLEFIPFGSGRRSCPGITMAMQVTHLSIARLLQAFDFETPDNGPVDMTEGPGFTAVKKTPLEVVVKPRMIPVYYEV

Compound	transient expression in N. benthamiana leaves, UHPLC/HRMS of products (AbP450-5021; ring-hydroxylation next to the esterified carbon (isomer 2))	transient expression in N. benthamiana leaves, UHPLC/HRMS of products (AbP450-116623)	transient expression in N. benthamiana leaves, UHPLC/HRMS of products (AbP450-5021; N-demethylation to tigloyl norpseudotropine, then ring-hydroxylation (isomer 2))
C/C=C(\C)C(=O)O[C@@H]1C[C@H]2CC[C@@H](C1)N2 [compound 21, tigloyl norpseudotropine]	producing AbP450-5021 alone using either tigloyl pseudotropine or tigloyl norpseudotropine as substrate	Assays with AbP450-116623 alone and N-demethylated tigloyl norpseudotropine as substrate yielded tigloyl hydroxynorpseudotropine	–
C/C=C(\C)C(=O)OC1CC2CCC(C1)N2C (stereo not drawn) [compound 6, tigloyl pseudotropine]	–	–	producing AbP450-5021 alone using either tigloyl pseudotropine or tigloyl norpseudotropine as substrate
